From patent US11566002B2, “Substituted tetrahydrocyclopenta[C]pyrroles, substituted dihydropyrrolizines, analogues thereof, and methods using same” (priority 2018, dated 2023)

Each compound was assayed on HBV rcDNA (assay: HepDE19 assay with bDNA quantitation of HBV rcDNA). Details: HepDE19 cells, Tet-free medium, 7 day-incubation, rcDNA measured by Quantigene 2.0 bDNA assay, top concentration 25 μM; read-out: DE-19 bDNA EC50.
Type: cell-based, hepatitis B virus
Summary of the method: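 HepDE19 cells (50,000/well) switched to Tet-free medium, then treated 7 days at 37° C with compounds from 25 μM (½-log, 8-point, duplicate; 0.5% DMSO). rcDNA quantified by bDNA with HBV probes; EC50/EC90 by 4-parameter fit. CC50 from CTG ATP on 5,000 cells/well after 4 days.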

Row | SMILES | EC50 [nM]
1 | Cn1cc2c(c1C(=O)Nc1ccc(F)c(Cl)c1)CCC2NC(=O)OCc1n[nH]nc1C1CC1 (single isomer, unassigned) [Compound 146, (5-Cyclopropyl-2H-1,2,3-triazol-4-yl)methyl (1-((3-chloro-4-fluorophenyl)carbamoyl)-2-methyl-2,4,5,6-tetrahydrocyclopenta[c]pyrrol-4-yl)carbamate] | 9300
2 | Cn1cc2c(c1C(=O)Nc1ccc(F)c(Cl)c1)CCC2NC(=O)OCc1n[nH]nc1C1CC1 (single isomer, unassigned) [Compound 147, (5-Cyclopropyl-2H-1,2,3-triazol-4-yl)methyl (1-((3-chloro-4-fluorophenyl)carbamoyl)-2-methyl-2,4,5,6-tetrahydrocyclopenta[c]pyrrol-4-yl)carbamate] | 3600
3 | Cn1cc2c(c1C(=O)Nc1ccc(F)c(Cl)c1)CCC2NC(=O)OCc1ccccn1 (stereo not drawn) [Compound 2, pyridin-2-ylmethyl (1-((3-chloro-4-fluorophenyl)carbamoy1)-2-methyl-2,4,5,6-tetrahydrocyclopenta[c]pyrrol-4-yl)carbamate] | 260
4 | Cn1cc2c(c1C(=O)Nc1ccc(F)c(Cl)c1)CCC2NC(=O)OCc1ccccn1 (stereo not drawn) [Compound 6] | 140
5 | Cn1cc2c(c1C(=O)Nc1ccc(F)c(Cl)c1)CCC2NC(=O)OCc1ccccn1 (stereo not drawn) [Compound 7, pyridin-2-ylmethyl(1-((3-chloro-4-fluorophenyl)carbamoy1)-2-methyl-2,4,5,6-tetrahydrocyclopenta[c]pyrrol-4-yl)carbamate] | 1400
6 | Cn1cc2c(c1C(=O)Nc1ccc(F)c(Cl)c1)CCCCC2N (stereo not drawn) [Compound 87, 4-Amino-N-(3-chloro-4-fluorophenyl)-2-methyl-2,4,5,6,7,8-hexahydro cyclohepta[c]pyrrole-1-carboxamide] | 1600
7 | Cn1cnc(COC(=O)NC2CCc3c2c(C(F)(F)F)n(C)c3C(=O)Nc2ccc(F)c(Cl)c2)n1 (stereo not drawn) [Compound 122] | 450
8 | Cn1cnc(COC(=O)NC2CCc3c2c(C(F)(F)F)n(C)c3C(=O)Nc2ccc(F)c(Cl)c2)n1 (stereo not drawn) [Compound 123] | 8000
9 | Cn1nnc(COC(=O)NC2CCc3c2cn(C)c3C(=O)Nc2ccc(F)c(Cl)c2)n1 (stereo not drawn) [Compound 142, (2-Methyl-1H-tetrazol-5-yl)methyl (1-((3-chloro-4-fluorophenyl)carbamoyl)-2-methyl-2,4,5,6-tetrahydrocyclopenta[c]pyrrol-4-yl)carbamate] | 3200
10 | Cn1nnc(COC(=O)NC2CCc3c2cn(C)c3C(=O)Nc2ccc(F)c(Cl)c2)n1 (stereo not drawn) [Compound 143, (2-Methyl-1H-tetrazol-5-yl)methyl(1-((3-chloro-4-fluorophenyl)carbamoyl)-2-methyl-2,4,5,6-tetrahydrocyclopenta[c]pyrrol-4-yl)carbamate] | 70

Same assay, conditions: Hepatitis B virus, HepDE19, 168 h, HepDE19 cells, Tet-free medium, 7 day-incubation, rcDNA measured by Quantigene 2.0 bDNA assay, top concentration 25 μM; read-out: DE-19 bDNA EC50

Row | SMILES | EC50 [nM]
11 | Cn1cc2c(c1C(=O)Nc1ccc(F)c(Cl)c1)CCC2NC(=O)OCc1nnnn1C (single isomer, unassigned) [Compound 145, (1-Methyl-1H-tetrazol-5-yl)methyl (1-((3-chloro-4-fluorophenyl)carbamoyl)-2-methyl-2,4,5,6-tetrahydrocyclopenta[c]pyrrol-4-yl)carbamate] | 2700
12 | COC(=O)NC1CCc2c1c[nH]c2C(=O)Nc1ccc(F)c(Cl)c1 (stereo not drawn) [Compound 9, methyl 1-(3-chloro-4-fluorophenylcarbamoyl)-2,4,5,6-tetrahydrocyclopenta[c]pyrrol-4-ylcarbamate] | 3000
13 | CCn1cc2c(c1C(=O)Nc1ccc(F)c(Cl)c1)CCC2NS(=O)(=O)C1CC1 (stereo not drawn) [Compound 12, N-(3-Chloro-4-fluorophenyl)-4-(cyclopropanesulfonamido)-2-ethyl-2,4,5,6-tetrahydrocyclopenta[c]pyrrole-1-carboxamide] | 260
14 | CCn1cc2c(c1C(=O)Nc1ccc(F)c(Cl)c1)CCC2NC(=O)C1CC1 (stereo not drawn) [Compound 18, N-(3-Chloro-4-fluorophenyl)-4-(cyclopropanecarboxamido)-2-ethyl-2,4,5,6-tetrahydro cyclopenta[c]pyrrole-1-carboxamide] | 350
15 | Cn1cc2c(c1C(=O)Nc1ccc(F)c(Cl)c1)CCC2=O [Compound 44, N-(3-chloro-4-fluorophenyl)-2-methyl-4-oxo-2,4,5,6-tetrahydrocyclopenta[c]pyrrole-1-carboxamide] | 19000
16 | Cn1cc2c(c1C(=O)Nc1ccc(F)c(Cl)c1)CCCC2=O [Compound 45, N-(3-chloro-4-fluorophenyl)-2-methyl-4-oxo-4,5,6,7-tetrahydro-2H-isoindole-1-carboxamide] | 70
17 | Cn1cc2c(c1C(=O)Nc1ccc(F)c(Cl)c1)CCC2NC(=O)OCc1ccn(C2CCCCO2)n1 (stereo not drawn) [Compound 63, (1-(Tetrahydro-2H-pyran-2-yl)-1H-pyrazol-3-yl)methyl (1-((3-chloro-4-fluorophenyl)carbamoyl)-2-methyl-2,4,5,6-tetrahydrocyclopenta[c]pyrrol-4-yl)carbamate] | 140
18 | Cn1cc2c(c1C(=O)Nc1ccc(F)c(Cl)c1)CCCCC2=O [Compound 72, N-(3-chloro-4-fluorophenyl)-2-methyl-4-oxo-2,4,5,6,7,8-hexahydrocyclohepta[c]pyrrole-1-carboxamide] | 50
19 | Cn1cc2c(c1C(=O)Nc1ccc(F)c(Cl)c1)CCCCC2N (stereo not drawn) [Compound 80, 4-Amino-N-(3-chloro-4-fluorophenyl)-2-methyl-2,4,5,6,7,8-hexahydro cyclohepta[c]pyrrole-1-carboxamide] | 1850
20 | Cn1c(C(=O)Nc2ccc(F)c(Cl)c2)c2c(c1C1CC1)C(NC(=O)OCc1nc[nH]n1)CC2 (stereo not drawn) [Compound 95, (1H-1,2,4-triazol-3-yl)methyl (1-((3-chloro-4-fluorophenyl)carbamoy1)-3-cyclopropy1-2-methyl-2,4,5,6-tetrahydrocyclopenta[c]pyrrol-4-yl)carbamate] | 15000
21 | Cn1cc2c(c1C(=O)Nc1ccc(F)c(Cl)c1)CCC2N (stereo not drawn) [Compound 100, 4-Amino-N-(3-chloro-4-fluorophenyl)-2-methyl-2,4,5,6-tetrahydrocyclopenta[c]pyrrole-1-carboxamide] | 3800
22 | Cn1c(Cl)c2c(c1C(=O)Nc1ccc(F)c(Cl)c1)CCC2NC(=O)OCc1nc[nH]n1 (stereo not drawn) [Compound 103, (1H-1,2,4-Triazol-3-yl)methyl (3-chloro-1-((3-chloro-4-fluorophenyl)carbamoyl)-2-methyl-2,4,5,6-tetrahydrocyclopenta[c]pyrrol-4-yl)carbamate] | 20

Same assay, conditions: read-out: DE-19 bDNA EC50; HepDE19 cells, Tet-free medium, 7 day-incubation, rcDNA measured by Quantigene 2.0 bDNA assay, top concentration 25 μM

Row | SMILES | EC50 [nM]
23 | Cn1cc2c(c1C(=O)Nc1ccc(F)c(Cl)c1)CCC2NC(=O)OCc1nn[nH]n1 (single isomer, unassigned) [Compound 149, (2H-Tetrazol-5-yl)methyl(1-((3-chloro-4-fluorophenyl)carbamoyl)-2-methyl-2,4,5,6-tetrahydrocyclopenta[c]pyrrol-4-yl)carbamate] | 1100
24 | Cn1cc2c(c1C(=O)Nc1ccc(F)c(Cl)c1)CCC2NC(=O)OCc1nn[nH]n1 (single isomer, unassigned) [Compound 150, (2H-Tetrazol-5-yl)methyl(1-((3-chloro-4-fluorophenyl)carbamoyl)-2-methyl-2,4,5,6-tetrahydrocyclopenta[c]pyrrol-4-yl)carbamate] | 6800
